Test systems include IGROV-1; NCI-H522; NCI-H460; PC-3; UACC-62; NCI/ADR-RES; A549; SK-MEL-5; HOP-62; SK-MEL-2; CCRF-CEM; SNB-75; MCF7; T47D; UACC-257; M19-MEL; HOP-92; BT-549.
Holding throughout (test): NCI-60 cell line screen, 48 h

The source of these data is ChEMBL document CHEMBL1201862, “PubChem BioAssay data set” (2004).

Molecules are shown by their SMILES.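 Grown in 96-well plates, cells were treated for 48 hours with each compound at five concentrations. Insufficient inhibition: endpoint recorded as highest concentration tested. GI50: concentration for 50% inhibition of growth.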 The source made the active and inactive calls. Rule as the data show it: active = GI50 up to about 1.1 µM and inactive = higher. Where only a bound is given, the exact number is not on record here.

Turning to `CCOC(=O)N1CCN(C(=O)Nc2cccc3ccccc23)CC1`, the GI50 in the assay with IGROV-1, with NCI-H522, with NCI-H460, with PC-3, with UACC-62 and with NCI/ADR-RES was > 10 µM (inactive) throughout. The GI50 in the assay on A549, with SK-MEL-5, in the assay with HOP-62, in the assay with SK-MEL-2, with CCRF-CEM and with SNB-75 was > 10 µM (inactive) throughout. The GI50 in the assay on MCF7 and with T47D was > 10 µM (inactive) each time.

In the case of `OCC(CO)CC1COc2ccccc2O1` (stereo not drawn), the GI50 in the assay with IGROV-1, with NCI-H522, in the assay on NCI-H460, with PC-3, in the assay with UACC-62 and in the assay with NCI/ADR-RES was > 10 µM (inactive) throughout. In addition, the GI50 in the assay with A549, in the assay with SK-MEL-5, in the assay with HOP-62, in the assay on SK-MEL-2, in the assay on CCRF-CEM and with SNB-75 was > 10 µM (inactive) throughout. The GI50 in the assay on MCF7 and in the assay with T47D was > 10 µM (inactive) each time.

With `CCNC(=O)N(CC)CN(CC)C(=O)NCC`, the GI50 with UACC-257, with NCI-H522, in the assay with UACC-62, in the assay on A549, with HOP-62 and in the assay with SK-MEL-2 was > 100 µM (inactive) in each case. The GI50 in the assay with CCRF-CEM, with SNB-75 and in the assay with M19-MEL was > 100 µM (inactive) each time.

Take `CC(C)C1OC(=O)/C=C/C=C/C=C/C=C/C=C/CC(O)C(C)C(O)CC(O)CC(O)CC(O)CC(O)CC(O)CC(O)/C=C/C1C` (stereo not drawn): the GI50 in the assay on UACC-257, with IGROV-1, in the assay with NCI-H522, in the assay with NCI-H460, in the assay on PC-3 and in the assay with UACC-62 was > 100 µM (inactive) each time. For the same molecule, the GI50 in the assay on NCI/ADR-RES, with A549, with HOP-62, with SK-MEL-2, in the assay on CCRF-CEM and in the assay with HOP-92 was > 100 µM (inactive) each time. Further, the GI50 in the assay with SNB-75 and in the assay on MCF7 was > 100 µM (inactive) in each case.

For `COC(=O)NCCc1n[nH]c2c1C(=O)C=C(N1CCOCC1)C2=O`, the GI50 in the assay with UACC-257, in the assay on IGROV-1, in the assay with NCI-H522, in the assay with NCI-H460, in the assay with PC-3 and in the assay on UACC-62 was > 100 µM (inactive) in each case. The GI50 with NCI/ADR-RES, with A549, in the assay with SK-MEL-5, in the assay with HOP-62, with SK-MEL-2 and in the assay with BT-549 was > 100 µM (inactive) in each case. In addition, the GI50 with CCRF-CEM, in the assay on HOP-92, in the assay with SNB-75, in the assay on MCF7 and in the assay with T47D was > 100 µM (inactive) in each case.

In the case of `COc1ccc(C(O)(c2ccccc2)c2nccc3ccccc23)cc1` (stereo not drawn), the GI50 with UACC-257 is 7.74 µM (inactive); in the assay with IGROV-1, 9.86 µM (inactive); in the assay with NCI-H522, 6.35 µM (inactive); with NCI-H460 it was 5.82 µM (inactive); in the assay with PC-3 it was 3.02 µM (inactive); in the assay on UACC-62, 3.74 µM (inactive). For the same molecule, the GI50 was 7.05 µM (inactive) with NCI/ADR-RES; 7.19 µM (inactive) with A549; 3.38 µM (inactive) in the assay on SK-MEL-5; 5.28 µM (inactive) in the assay with HOP-62; 8.41 µM (inactive) in the assay on BT-549; 2.01 µM (inactive) in the assay on CCRF-CEM. Moreover, the GI50 is 4.32 µM (inactive) in the assay on MCF7 and 36.8 µM (inactive) in the assay with T47D.

Regarding `CCOC(=O)C1(C(=O)OCC)CSC1`, the GI50 was > 100 µM (inactive) with UACC-257; > 100 µM (inactive) in the assay with NCI-H522; 0.263 µM (active) with NCI-H460; > 100 µM (inactive) in the assay on PC-3; > 100 µM (inactive) in the assay with NCI/ADR-RES; > 100 µM (inactive) in the assay on A549. Besides, the GI50 in the assay on SK-MEL-5, in the assay with CCRF-CEM, in the assay on HOP-92, with SNB-75, in the assay with MCF7 and in the assay on T47D was > 100 µM (inactive) throughout.

For the molecule `N#Cc1c(NC(=S)Nc2ccc(Cl)cc2)sc2c1CCCC2`, the GI50 was > 100 µM (inactive) in the assay with UACC-257; > 100 µM (inactive) in the assay with IGROV-1; 25.8 µM (inactive) in the assay with NCI-H522; > 100 µM (inactive) in the assay on PC-3; > 100 µM (inactive) in the assay with UACC-62; 65.3 µM (inactive) with NCI/ADR-RES. Also, the GI50 in the assay on SK-MEL-5, in the assay with SK-MEL-2, with BT-549, in the assay on SNB-75, in the assay on MCF7 and with T47D was > 100 µM (inactive) each time.

On to `CC(=O)OC/C=C\Cn1nc(Br)c(=O)[nH]c1=O`, for which the GI50 with UACC-257 was 15.5 µM (inactive); with IGROV-1 it was 15 µM (inactive); in the assay with NCI-H522 it was 2.81 µM (inactive); in the assay on NCI-H460, 13.2 µM (inactive); in the assay with PC-3 it was 13.2 µM (inactive); in the assay with NCI/ADR-RES it was 17.3 µM (inactive). In addition, the GI50 was 16.7 µM (inactive) in the assay on A549; 14.6 µM (inactive) in the assay with SK-MEL-5; 16.3 µM (inactive) with HOP-62; 13.1 µM (inactive) with SK-MEL-2; 9.77 µM (inactive) in the assay with BT-549; 5.24 µM (inactive) in the assay on CCRF-CEM. Further, the GI50 with HOP-92 is 13 µM (inactive); with SNB-75, 15.1 µM (inactive); in the assay with MCF7 it was 11.5 µM (inactive); with T47D it was 13.9 µM (inactive).

Take `O=C1c2ccccc2C(=O)N1CC(CN1C(=O)c2ccccc2C1=O)(C(=O)OCc1ccccc1)C(=O)OCc1ccccc1`: the GI50 with IGROV-1, in the assay with NCI-H522, in the assay on NCI-H460, with PC-3, in the assay with UACC-62 and in the assay on NCI/ADR-RES was > 100 µM (inactive) throughout. The GI50 is > 100 µM (inactive) in the assay on SK-MEL-5; > 100 µM (inactive) with HOP-62; > 100 µM (inactive) with SK-MEL-2; > 100 µM (inactive) in the assay on BT-549; 6.11 µM (inactive) in the assay on CCRF-CEM; > 100 µM (inactive) in the assay with HOP-92. The GI50 with SNB-75 and in the assay with T47D was > 100 µM (inactive) each time.

As to `CC1(C)CCCCCC(C)(CCCO)C1=O` (stereo not drawn), the GI50 in the assay with UACC-257, in the assay with IGROV-1, with NCI-H522, in the assay on NCI-H460, with PC-3 and with UACC-62 was > 100 µM (inactive) each time. Moreover, the GI50 with NCI/ADR-RES, in the assay with A549, with SK-MEL-5, in the assay on HOP-62, in the assay with SK-MEL-2 and in the assay with BT-549 was > 100 µM (inactive) in each case. The GI50 in the assay on CCRF-CEM, with HOP-92, in the assay on SNB-75, in the assay on MCF7 and in the assay with T47D was > 100 µM (inactive) in each case.

For `NC(=O)Nc1ccc(C(=O)NCCCNC(=O)c2ccc(NC(N)=O)cc2)cc1`, the GI50 in the assay on UACC-257, with IGROV-1, in the assay on NCI-H522, in the assay with NCI-H460, in the assay on PC-3 and with UACC-62 was > 100 µM (inactive) in each case. The GI50 in the assay with NCI/ADR-RES, in the assay with A549, with SK-MEL-5, with HOP-62, with SK-MEL-2 and in the assay with BT-549 was > 100 µM (inactive) each time. Moreover, the GI50 in the assay with CCRF-CEM, in the assay with HOP-92, in the assay with SNB-75, in the assay with MCF7 and with T47D was > 100 µM (inactive) throughout.

Take `C[N+]1(C)CCCC(C#N)(c2ccccc2)CC1` (stereo not drawn): the GI50 in the assay with UACC-257, in the assay on IGROV-1, in the assay on NCI-H460, in the assay on PC-3, in the assay on NCI/ADR-RES and with A549 was > 100 µM (inactive) throughout. The GI50 in the assay with SK-MEL-5, with HOP-62, in the assay on CCRF-CEM, in the assay on HOP-92, in the assay with SNB-75 and with MCF7 was > 100 µM (inactive) throughout. Further, the GI50 with T47D was > 100 µM (inactive).

On to `COc1ccc2[nH]c3c(C)c4ccnc(NCCCN(C)CCCNc5ccc6nnn7c8ccccc8c(=O)c5c67)c4c(C)c3c2c1`, for which the GI50 with UACC-257 was 1.43 µM (inactive); in the assay on IGROV-1, 0.308 µM (active); in the assay with NCI-H522, 0.107 µM (active); in the assay on NCI-H460, 0.0399 µM (active); in the assay on PC-3, 0.597 µM (active); with UACC-62, > 10 µM (inactive). Also, the GI50 was 0.982 µM (active) in the assay on NCI/ADR-RES; 0.0395 µM (active) in the assay on A549; 0.714 µM (active) in the assay on HOP-62; > 10 µM (inactive) in the assay with SK-MEL-2; 1.83 µM (inactive) in the assay with BT-549; 0.0047 µM (active) in the assay on CCRF-CEM. Further, the values for the GI50 in the assay with SNB-75, with MCF7 and in the assay on T47D were 1.01 µM (active), 0.0561 µM (active) and 1.81 µM (inactive), respectively.
